US8435987B2, “Pyrazolo-pyridinone and pyrazolo-pyrazinone compounds as P38 modulators and methods of use thereof” (Amgen Inc., priority 2007, dated 2013)
Read-outs that look alike come from different tables or passages of the source.

Key:
[1] = target: recombinant human p38α (Homo sapiens, UniProt Q16539); test: Purified and activated recombinant human p38α HTRF assay; type: biochemical; conditions: 1 nM p38α, 50 μM ATP, 100 nM GST-ATF2-Avitag, read-out: p3a IC550
Protocol: Purified and Activated Recombinant Human p38α Assay
• Kinase Reaction Buffer: Kinase reaction buffer for p38α HTRF assays consists of 50 mM Tris-pH 7.5, 5 mM MgCl2, 0.1 mg/mL BSA, 100 μM Na3VO4 and 0.5 mM DTT. • HTRF Detection Buffer: HTRF detection buffer contains 100 mM HEPES-pH 7.5, 100 mM NaCl, 0.1% BSA, 0.05% Tween-20, and 10 mM EDTA. • Serial Dilution of Compounds: Compounds were dissolved in 100% DMSO and serially diluted (3 fold, 10 point) in a polypropylene 96-well microtiter plate (drug plate). The final starting concentration of compounds in the p38a enzymatic assays was 1 μM. Columns 6 and 12 (HI controls and LO controls respectively) in the drug plate were reserved as controls and contained only DMSO. • Kinase Reaction: The p38α kinase reactions were carried out in a polypropylene 96-well black round bottom assay plate in total volume of 30 μL kinase reaction buffer. Appropriate concentration of purified and activated enzyme (recombinant human) was mixed with indicated concentration of ATP and 100 nM GST-ATF2-Avitag, in the presence or absence (HI control) of Compound. See table below for actual concentrations. In the absence of substrate, the background was measured as LO control. The reaction was allowed to incubate for 1 hour at RT. • Assay Reagent Concentrations: The final reagent concentrations were 1 nM p38α and 50 μM ATP. […] After 60 minutes incubation at room temperature, the assay plate was read in a Discovery Plate Reader. The wells were excited with coherent 320 nm light and the ratio of delayed ([…] post excitation) emissions at […] (native europium fluorescence) and 665 nm (europium fluorescence transferred to allophycocyanin—an index of substrate phosphorylation) was determined (Park et al, 1999). • Data Analysis: The proportion of substrate phosphorylated in the kinase reaction in the presence of compound compared with that phosphorylated in the presence of DMSO vehicle alone (HI control) was calculated using the formula: % control (POC)=(compound−average LO)/(average HI−average LO)*100. Data (consisting of POC and inhibitor concentration in μM) was fitted to a 4-parameter equation (y=A+((B−A)/(1+((x/C)AD))), where A is the minimum y (POC) value, B is the maximum y (POC), C is the x (compound concentration) at the point of inflection and D is the slope factor, using a Levenburg-Marquardt non-linear regression algorithm.
The inhibition constant (Ki) of the inhibitor was estimated from the IC50 (compound concentration at the point of inflection C) using the Cheng-Prussof equation: Ki=IC50/(1+S/Km), where S is the ATP substrate concentration, and Km is the Michaelis constant for ATP as determined experimentally. All results were expressed as the mean± the standard error of the mean. Data acquisition and non-linear regression algorithms were performed using Activity Base v5.2 and XL-fit software v4.1 respectively. All data was archived using Activity Base v5.2 software.

[2] = tested on: secreted IL-8 by whole blood activated with TNF-α; test: Inhibition of TNF-α induced IL-8 in 50% human whole blood; type: cell-based
Protocol: Inhibition of TNF-α Induced IL-8 in 50% Human Whole Blood
Test compounds were evaluated in vitro for the ability to inhibit the production of secreted IL-8 by whole blood activated with TNF-α. Fresh human whole blood was obtained from healthy, non-medicated volunteers in sodium heparin tubes.
Compound Dilution—Assay Procedure
Test compounds are serially diluted 1:3 in DMSO and then diluted 1:250 into R10 (RPMI 1640, 10% human serum AB, 1× pen/strep/glutamine) to the 4× working concentration to be used in the assay. 100 ul heparinized whole blood is plated into wells of 96 well flat bottom plates. 50 ul of either 4× compound or DMSO control (Final DMSO concentration is 0.1%) are added to the appropriate wells. Plates are incubated for 1 hour at 37 degrees Celsius. 50 ul of 4× TNF-α (4 nM TNF-α, for a final concentration of 1 nM) or control (media alone) is added to the appropriate wells (Total volume=200 ul). Plates are incubated overnight (16-18 hours). 100 ul of supernatant is collected and stored in 96-well round bottom polypropylene plates at −80 degrees Celsius or assayed immediately for IL-8.
Cytokines are measured on antibody (Ab) sandwich ECL based 96-well detection plates. 20 ul of supernatant are added to plate and plate is sealed and shaken at RT for 1 hour. 130 ul of detection Ab cocktail is added and plates are sealed and shaken for 1 hour in the dark at RT. Plates are read on MSD Sector HTS instrument. Data are analyzed and IC50 values generated using Activity Base and Xl-fit programs.

[3] = tested on: TNF-α secretion by LPS-treated THP1 cells; test: Lipopolysaccharide-activated THP1 cell TNF production assay; type: cell-based; conditions: Homo sapiens, THP-1, 3 hours, read-out: IC50 in the THP-1 cellular TNF production assay
Protocol: Lipopolysaccharide-Activated THP1 Cell TNF Production Assay
THP1 cells were resuspended in fresh THP1 media (RPMI 1640, 10% heat-inactivated FBS, 1×PGS, 1×NEAA, plus 30 μM βME) at a concentration of 1.5×10^6 cells per mL. One hundred microliters of cells per well were plated in a polystyrene 96-well tissue culture plate. 1.5 micrograms per mL of bacterial LPS was prepared in THP1 media and transferred to the first 11 columns of a 96-well polypropylene plate. Column 12 contained only THP1 media for the LO control. Compounds were dissolved in 100% DMSO and serially diluted 3 fold in a polypropylene 96-well microtiter plate (drug plate). Columns 6 and 12 were reserved as controls (HI controls and LO controls respectively) and contained only DMSO. 10 μL of LPS followed by one microliter of inhibitor compound from the drug plate was transferred to the cell plate. The treated cells were induced to synthesize and secrete TNF-α in a 37° C. humidified incubator with 5% CO2 for 3 hours. Fifty microliters of conditioned media was transferred to a 96-well MULTI-ARRAY™ 96-well small spot plate—custom coated with MAB610 containing 100 μL of 2× Read Buffer P supplemented with 0.34 nM AF210NA polyclonal Ab labeled with ruthenium (MSD-Sulfo-TAG™—NHS ester). After an overnight incubation at room temperature with shaking, the reaction was read on the Sector Imager™ 6000. […] The amount of secreted TNF-α in the presence of AMG compounds compared with that in the presence of DMSO vehicle alone (HI control) was calculated using the formula: % control (POC)=(cpd−average LO)/(average HI−averageLO)*100. Data (consisting of POC and inhibitor concentration in μM) was fitted to a 4-parameter equation (y=A+((B−A)/(1+((x/C)^D))), where A is the minimum y (POC) value, B is the maximum y (POC), C is the x (cpd concentration) at the point of inflection and D is the slope factor) using a Levenburg-Marquardt non-linear regression algorithm.

[4] = 50% human whole blood, TNF-α (1 nM final) induced IL-8, 16-18 hours, read-out: WB TNF/IL8 IC50
[5] = Homo sapiens, read-out: IC50, TNF-α induced IL-8 in 50% human whole blood

recombinant human p38α, sequence (Q16539 whole entry): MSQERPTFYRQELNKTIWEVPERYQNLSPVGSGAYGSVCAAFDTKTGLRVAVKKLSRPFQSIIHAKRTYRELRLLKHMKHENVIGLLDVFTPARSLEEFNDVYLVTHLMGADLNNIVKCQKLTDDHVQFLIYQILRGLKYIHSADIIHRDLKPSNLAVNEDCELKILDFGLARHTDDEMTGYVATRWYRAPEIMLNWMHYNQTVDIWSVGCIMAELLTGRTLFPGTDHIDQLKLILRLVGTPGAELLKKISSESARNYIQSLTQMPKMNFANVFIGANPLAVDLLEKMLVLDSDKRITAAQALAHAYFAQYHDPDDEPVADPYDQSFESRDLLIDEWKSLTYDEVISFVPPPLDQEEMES

SMILES | IC50 [1] [nM] | IC50 [2, 4] [nM] | IC50 [2, 5] [nM] | IC50 [3] [nM]
CCn1c(=O)c(-c2c(C)ccc3c(NC4CC4)noc23)cc2cnn(-c3ccccc3F)c21 [Example 7, 5-(3-(cyclopropylamino)-6-methyl-1,2-benzisoxazol-7-yl)-7-ethyl-1-(2-fluorophenyl)-1,7-dihydro-6H-pyrazolo[3,4-b]pyridin-6-one] | 2 | 1.3 | ≤ 100 | ≤ 100
CNc1noc2c(-c3nc4cnn(-c5ccc(F)cc5F)c4n(C)c3=O)c(C)ccc12 [Example 2, 1-(2,4-difluorophenyl)-7-methyl-5-(6-methyl-3-(methylamino)benzo[d]isoxazol-7-yl)-1H-pyrazolo[4,3-b]pyrazin-6(7H)-one] | 28.5 | – | ≤ 100 | ≤ 100
Cc1ccc2c(NC3CC3)noc2c1-c1cc2cnn(-c3cc(F)ccc3F)c2n(C)c1=O [Example 6, 5-(3-(cyclopropylamino)-6-methyl-1,2-benzisoxazol-7-yl)-1-(2,5-difluorophenyl)-7-methyl-1,7-dihydro-6H-pyrazolo[3,4-b]pyridin-6-one] | 8.9 | 1.6 | ≤ 100 | ≤ 100

Continued, values first:

IC50 [1] [nM] | IC50 [2, 4] [nM] | IC50 [2, 5] [nM] | IC50 [3] [nM] | SMILES
4.4 | 1.8 | ≤ 100 | ≤ 100 | Cc1ccc2c(NC3CC3)noc2c1-c1cc2cnn(-c3ccc(F)cc3F)c2n(C)c1=O [Example 8, 5-(3-(cyclopropylamino)-6-methyl-1,2-benzisoxazol-7-yl)-1-(2,4-difluorophenyl)-7-methyl-1,7-dihydro-6H-pyrazolo[3,4-b]pyridin-6-one]
– | 8 | – | – | Cc1ccc2c(NC3CC3)noc2c1-c1nc2cnn(-c3c(F)cccc3F)c2n(C)c1=O [Example 9, 5-(3-(cyclopropylamino)-6-methyl-1,2-benzisoxazol-7-yl)-1-(2,6-difluorophenyl)-7-methyl-1,7-dihydro-6H-pyrazolo[3,4-b]pyrazin-6-one]
– | 8.9 | – | – | Cc1ccc2c(NC3CC3)noc2c1-c1nc2cnn(-c3ccc(F)cc3F)c2n(C)c1=O [Example 10, 5-(3-(cyclopropylamino)-6-methyl-1,2-benzisoxazol-7-yl)-1-(2,4-difluorophenyl)-7-methyl-1,7-dihydro-6H-pyrazolo[3,4-b]pyrazin-6-one]
